Results reported in patent US12459915B2, “Biaryl derivative useful as diacylglycerol acyltransferase 2 inhibitor, and use thereof” (LG CHEM, LTD., priority 2020, dated 2025).
pIC50: −log10 of the molar value.

Molecular target: Recombinant human DGAT2 protein (Homo sapiens (Human), UniProt Q96PD7)
Assay: Measurement of inhibitory effect against DGAT2 enzyme activity (SPA, Phospholipid Flash Plate)
Format: biochemical
Details: DGAT2-membrane protein from Sf-21 cells, [14C] oleoyl CoA, 1,2 sn-oleoyl glycerol, 37° C.; read-out: IC50 (concentration of the compound that inhibits TG production by 50%)
Description: In order to prepare the pBacPAK9-DGAT2, which is DGAT2 expression vector, the human DGAT2 gene amplified by polymerase chain reaction (PCR) was cloned into the EcoR1 and Xho1 sites of the pBacPAK9 (clonctech) vector. The nucleotide sequence of the primers used in PCR was the forward primer 5′ […] and the reverse primer 5′ […]. The composition of the reaction solution was to contain 50 ng of cDNA clone (OriGene), 200 μM of dATP, dCTP, dTTP, dGTP, 200 nM of each primer, 1 unit of Tag DNA Polymerase (Toyobo), 1×PCR buffer, and the final volume was adjusted to 20 μl. […]
Recombinant human DGAT2 protein was expressed in Sf-21 cells, which are insect cells, by using the BacPack baculovirus expression system (Clontech). […] Protein concentration was quantified by using the BCA Protein Assay Kit (Thermo Scientific).
In vitro DGAT2 analysis was performed using a Phospholipid Flash Plate (PerkinElmer) based on the principle of SPA (Scintilation Proximity Assay). […] The next day, the amplified scintillation signal (cpm) in Topcounter (Packard) was measured to measure the degree of production of [14C]-labeled triacyl glycerol (TG) as a reaction product. The measured value when the compound was not treated was used as a positive control, and the measured value of the compound treated group was calculated as a relative % to measure the inhibition effect of the compound on TG production. […]

Recombinant human DGAT2 protein, sequence (Q96PD7 whole entry): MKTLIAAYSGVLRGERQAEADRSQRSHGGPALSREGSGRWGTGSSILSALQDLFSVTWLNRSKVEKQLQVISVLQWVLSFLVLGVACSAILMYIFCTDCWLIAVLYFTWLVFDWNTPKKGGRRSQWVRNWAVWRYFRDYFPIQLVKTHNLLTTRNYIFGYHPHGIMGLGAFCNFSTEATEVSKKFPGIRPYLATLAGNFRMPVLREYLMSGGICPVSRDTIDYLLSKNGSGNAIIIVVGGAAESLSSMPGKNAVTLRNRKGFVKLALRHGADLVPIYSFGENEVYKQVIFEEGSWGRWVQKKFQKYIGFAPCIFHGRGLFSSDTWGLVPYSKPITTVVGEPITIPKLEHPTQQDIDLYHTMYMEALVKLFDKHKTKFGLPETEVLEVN

## CCOc1ccccc1Oc1cccc(-c2cncc(NC(=O)Cc3ccc(CC(=O)O)cc3)n2)c1 [Example 11, 2-(4-(2-((6-(3-(2-ethoxyphenoxy)phenyl)pyrazin-2-yl)amino)-2-oxoethyl)phenyl)acetic acid]
  pIC50: 6.43
